Like-named read-outs stand apart in the source and are kept apart here.
What was measured:
[1] = system: MYC mRNA; assay: cMyc RNA quantification assay (QuantiGene) in Raji cells; assay type: cell-based; details: 4 h
Experimental: (§1) MV4:11 (AML) or Raji (Burkitt's lymphoma) cells were seeded in a 96-well plate and incubated in the presence of various concentrations of compounds for 4 h. Relative mRNA levels were quantitated by using QuantiGene 2.0 assay (Affymetrix) according to the manufacturer's recommendation. Signals were detected by using an Envision plate reader (Perkin-Elmer). Biological duplicates were averaged and normalized to vehicle (DMSO) control to calculate percent MYC mRNA levels.

[2] = system: IL-6 secretion; assay: Cell-based IL-6 quantification assay (ELISA, Mesoscale) in LPS-stimulated THP-1 cells; details: THP-1 cells, 16 h, read-out: IL6
How it was run: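 THP-1 cells stimulated with LPS at 4 μg/mL final and exposed to compounds for 16 h. Supernatant IL-6 measured by Mesoscale ELISA and normalized to CellTiter-Glo cell content. Percent inhibition derived from that ratio.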

[3] = biological target: T1, BRD4(BD1) (Homo sapiens, UniProt O60885); assay: BRD4 AlphaLisa binding assay (Alphascreen)
T1 construct: His; made in house
How it was run: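 BRD4(BD1) (30 nM) incubated 20 min at room temperature with peptide (200 nM) and compound in 40 mM HEPES pH 7.0, 40 mM NaCl, 1 mM DTT, 0.01% BSA, 0.008% Brij-35, 1.2% DMSO.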

[4] = system: LPS-induced IL-6 production; assay: In-vivo inhibition of LPS-induced IL-6 production; set-up: species or system Balb/C mice; details: Table 15; oral gavage 30 min prior to LPS, plasma IL-6 ELISA two hours after LPS challenge, 50% inhibition compared to vehicle
Experimental: Female Balb/C mice, 6 weeks old upon arrival at animal facility, and weighing 18-20 g/mouse were used for this assay. The mice are acclimated in animal facility for 5-7 days prior experiment initiation. Mice were randomly divided into experimental groups to include several doses of test article, and vehicle and dexamethasone controls. Mice were fasted from 12 hours prior to study initiation (dosing), but allowed free access to water. Mice were dosed following study group design by oral gavage 30 min prior to LPS stimulation. Dosing interval time was 1 min/mouse.
Two hours after LPS challenge animals were anesthetized by CO2 inhalation, and blood was sampled via cardiac puncture into EDTA coated tubes and placed on ice. Plasma was separated by centrifugation at 3000 g at 4° C. for 15 min. The separated plasma was divided into aliquots (50 ul/aliquot) and stored at −80° C. until plasma IL-6 ELISA and drug levels were analyzed.

[5] = system: MYC mRNA; assay: cMyc RNA quantification assay (QuantiGene) in MV4:11 cells; assay type: cell-based; details: read-out: MYC-MV411
Experimental: as §1

[6] = Table 7, Raji (Burkitt's lymphoma) cells
[7] = Table 7, LPS 4 μg/mL, normalised to CellTiter-Glo
[8] = Table 6, BRD4(BD1) 30 nM, H4-tetraacetyl peptide 200 nM, read-out: BRD4 Alphascreen IC50
[9] = Table 7, MV4:11 (AML) cells, 4 h
[10] = Homo sapiens, Table 7, Raji (Burkitt's lymphoma) cells
[11] = Homo sapiens, THP-1, 16 h, Table 7, LPS 4 μg/mL, normalised to CellTiter-Glo
[12] = Homo sapiens, MV4-11, 4 h, Table 7, MV4:11 (AML) cells
[13] = Homo sapiens, Table 14, Raji cells
[14] = Homo sapiens, THP-1, 16 h, Table 14, LPS
[15] = Homo sapiens, MV4-11, 4 h, Table 14, MV4:11 cells
[16] = Table 14, BRD4 AlphaLisa Binding Assay, read-out: Alpha screen

Structure (SMILES) | IC50 [2, 14] | IC50 [5, 15] | IC50 [3, 16] | other results
Cc1cccc2c1C(c1ccc(Cl)cc1)=NC(CC(N)=O)c1onc(C)c1-2 (stereo not shown) [Compound 128] | – | – | – | IC50 [1, 6]: < 500 nM; IC50 [2, 7]: < 500 nM; IC50 [3, 8]: < 500 nM; ED50 (mg/kg) [4]: ++ (“++” indicates an ED50 of less than 10 mg/kg)
Cc1cccc2c1C(c1ccc(C#N)cc1)=N[C@@H](CC(N)=O)c1onc(C)c1-2 [Compound 130] | – | – | – | IC50 [1, 6]: < 500 nM; IC50 [2, 7]: < 500 nM; IC50 [5, 9]: < 500 nM; IC50 [3, 8]: < 500 nM
Cc1cccc2c1C(c1ccc(OC(F)(F)F)cc1)=N[C@@H](CC(N)=O)c1onc(C)c1-2 [Compound 136] | – | – | – | IC50 [1, 6]: < 500 nM; IC50 [2, 7]: < 500 nM; IC50 [5, 9]: < 500 nM; IC50 [3, 8]: < 500 nM
Cc1noc2c1-c1cccc(Cl)c1C(c1ccc(Cl)cc1)=N[C@H]2CC(N)=O [Compound 139] | – | – | – | IC50 [1, 6]: < 500 nM; IC50 [2, 7]: < 500 nM; IC50 [5, 9]: < 500 nM; IC50 [3, 8]: < 500 nM
COCCNC(=O)C[C@@H]1N=C(c2ccc(Cl)cc2)c2ccccc2-c2c(C)noc21 [Compound 145] | – | – | – | IC50 [1, 6]: < 500 nM; IC50 [2, 7]: < 500 nM; IC50 [5, 9]: < 500 nM; IC50 [3, 8]: < 500 nM
Cc1noc2c1-c1ccnc(F)c1C(c1ccc(Cl)cc1)=N[C@H]2CC(N)=O [Compound 180, 2-((4S)-6-(4-Chlorophenyl)-7-fluoro-1-methyl-4H-isoxazolo[5,4-c]pyrido[4,3-e]azepin-4-yl)acetamide] | – | – | – | IC50 [1, 10]: 500 to 1000 nM; IC50 [2, 11]: < 500 nM; IC50 [5, 12]: 500 to 1000 nM
CNc1nccc2c1C(c1ccc(Cl)cc1)=N[C@@H](CC(N)=O)c1onc(C)c1-2 [Compound 181, 2-((4S)-6-(4-chlorophenyl)-1-methyl-7-(methylamino)-4H-isoxazolo[5,4-c]pyrido[4,3-e]azepin-4-yl)acetamide] | – | – | – | IC50 [1, 10]: < 500 nM; IC50 [2, 11]: < 500 nM; IC50 [5, 12]: < 500 nM; IC50 [3, 8]: < 500 nM
Cc1noc2c1-c1ccc(Cl)cc1C(c1ccc(F)cc1)=N[C@H]2C [Compound 230] | < 500 nM | 500 to 1000 nM | < 500 nM | –
Cc1noc2c1-c1ccc(-c3ccc(N)nc3)cc1C(c1ccc(F)cc1)=N[C@H]2C [Compound 231] | < 500 nM | < 500 nM | < 500 nM | –
Cc1noc2c1-c1sc(C)c(C)c1C(c1ccc(C(C)(C)O)cc1)=NC2CC(N)=O (stereo not shown) [Compound 236] | < 500 nM | < 500 nM | < 500 nM | –
Cc1noc2c1-c1ccc(-c3ccc(C(=O)O)cc3)cc1C(c1ccc(F)cc1)=N[C@H]2C [Compound 237] | < 500 nM | < 500 nM | < 500 nM | –
CNc1ccc2c(n1)C(c1ccc(Cl)cc1)=NCc1onc(C)c1-2 [Compound 241, 6-(4-Chlorophenyl)-N,1-dimethyl-4H-isoxazolo[5,4-c]pyrido[3,2-e]azepin-8-amine] | < 500 nM | < 500 nM | < 500 nM | –
COc1ccc2c(n1)C(c1ccc(Cl)cc1)=NCc1onc(C)c1-2 [Compound 242, 6-(4-Chlorophenyl)-8-methoxy-1-methyl-4H-isoxazolo[5,4-c]pyrido[3,2-e]azepine] | > 1000 nM | > 1000 nM | 500 to 1000 nM | –
CCNC(=O)NC1N=C(c2ccc(Cl)cc2)c2ccccc2-c2c(C)noc21 (stereo not shown) [Compound 245, 1-(6-(4-chlorophenyl)-1-methyl-4H-benzo[c]isoxazolo[4,5-e]azepin-4-yl)-3-ethylurea] | < 500 nM | < 500 nM | < 500 nM | –
CCOc1ccc2c(c1)C(c1ccc(Cl)cc1)=N[C@@H](CC(N)=O)c1onc(C)c1-2 [Compound 248] | < 500 nM | < 500 nM | < 500 nM | –
Cc1noc2c1-c1ccc(OC(C)C)cc1C(c1ccc(Cl)cc1)=N[C@H]2CC(N)=O [Compound 249] | – | – | < 500 nM | IC50 ([2]; Table 14, LPS): < 500 nM; IC50 ([5]; Table 14, MV4:11 cells, 4 h): < 500 nM
Cc1noc2c1-c1cnc(N3CCCC3)cc1C(c1ccc(Cl)cc1)=NC2 [Compound 255, 6-(4-Chlorophenyl)-1-methyl-8-(pyrrolidin-1-yl)-4H-isoxazolo[5,4-c]pyrido[3,4-e]azepine] | < 500 nM | 500 to 1000 nM | < 500 nM | –
Cc1noc2c1-c1cnc(Cl)cc1C(c1ccc(Cl)cc1)=NC2 [Compound 256, 8-Chloro-6-(4-chlorophenyl)-1-methyl-4H-isoxazolo[5,4-c]pyrido[3,4-e]azepine] | > 1000 nM | > 1000 nM | > 1000 nM | –

More lines, main results first:

IC50 [2, 14] | IC50 [5, 15] | IC50 [3, 16] | Structure (SMILES) | other results
< 500 nM | < 500 nM | < 500 nM | Cc1noc2c1-c1ccc(-c3ccc(N)nc3)cc1C(c1ccc(C(F)(F)F)cc1)=N[C@H]2CC(N)=O [Compound 206] | IC50 [1, 13]: < 500 nM
< 500 nM | < 500 nM | < 500 nM | Cc1noc2c1-c1sc(C)c(C)c1C(c1ccc(C(F)(F)F)cc1)=NC2CC(N)=O (stereo not shown) [Compound 208] | IC50 [1, 13]: < 500 nM
< 500 nM | < 500 nM | < 500 nM | Cc1noc2c1-c1sc(C)c(C)c1C(c1ccc(C#N)cc1)=N[C@H]2[C@@H](C)C(N)=O [Compound 209, (2R)-2-((6S)-4-(4-cyanophenyl)-2,3,9-trimethyl-6H-isoxazolo[5,4-c]thieno[2,3-e]azepin-6-yl)propanamide] | IC50 [1, 13]: 500 to 1000 nM
< 500 nM | < 500 nM | < 500 nM | Cc1noc2c1-c1ccc(F)cc1C(c1ccc(Cl)cc1)=N[C@H]2CC(N)=O [Compound 210] | IC50 [1, 13]: 500 to 1000 nM
500 to 1000 nM | 500 to 1000 nM | < 500 nM | Cc1noc2c1-c1ccccc1C(c1ccc(C(C)(C)N)cc1)=N[C@H]2CC(N)=O [Compound 233] | –
500 to 1000 nM | 500 to 1000 nM | < 500 nM | Cc1noc2c1-c1ccc(-c3ccc(C(=O)O)cc3)cc1C(c1ccc(F)cc1)=N[C@H]2CC(N)=O [Compound 234] | –
< 500 nM | < 500 nM | < 500 nM | Cc1noc2c1-c1ccccc1C(c1ccc(C(C)(C)O)cc1)=N[C@H]2CC(N)=O [Compound 235] | –
> 1000 nM | > 1000 nM | > 1000 nM | Cc1noc2c1-c1ccccc1C(c1ccc(F)cc1)=NC2C(F)(F)F (stereo not shown) [Compound 238, 6-(4-fluorophenyl)-1-methyl-4-(trifluoromethyl)-4H-benzo[c]isoxazolo[4,5-e]azepine] | –
< 500 nM | < 500 nM | < 500 nM | Cc1noc2c1-c1ccc(O)cc1C(c1ccc(Cl)cc1)=N[C@H]2CC(N)=O [Compound 239, 2-((4S)-6-(4-chlorophenyl)-8-hydroxy-1-methyl-4H-benzo[c]isoxazolo[4,5-e]azepin-4-yl)acetamide] | –
> 1000 nM | > 1000 nM | > 1000 nM | Cc1noc2c1-c1ccc(Cl)nc1C(c1ccc(Cl)cc1)=NC2 [Compound 240, 8-Chloro-6-(4-chlorophenyl)-1-methyl-4H-isoxazolo[5,4-c]pyrido[3,2-e]azepine] | –
> 1000 nM | > 1000 nM | 500 to 1000 nM | Cc1noc2c1-c1ccc(=O)[nH]c1C(c1ccc(Cl)cc1)=NC2 [Compound 243, 6-(4-Chlorophenyl)-1-methyl-4H-isoxazolo[5,4-c]pyrido[3,2-e]azepin-8(7H)-one] | –
> 1000 nM | > 1000 nM | 500 to 1000 nM | Cc1noc2c1-c1ccc(=O)n(C)c1C(c1ccc(Cl)cc1)=NC2 [Compound 246, 6-(4-Chlorophenyl)-1,7-dimethyl-4H-isoxazolo[5,4-c]pyrido[3,2-e]azepin-8(7H)-one] | –
< 500 nM | 500 to 1000 nM | < 500 nM | Cc1noc2c1-c1ccc(N3CCCC3)nc1C(c1ccc(Cl)cc1)=NC2 [Compound 247, 6-(4-Chlorophenyl)-1-methyl-8-(pyrrolidin-1-yl)-4H-isoxazolo[5,4-c]pyrido[3,2-e]azepine] | –
500 to 1000 nM | > 1000 nM | < 500 nM | Cc1noc2c1-c1ccc(N)nc1C(c1ccc(Cl)cc1)=NC2 [Compound 257, 6-(4-Chlorophenyl)-1-methyl-4H-isoxazolo[5,4-c]pyrido[3,2-e]azepin-8-amine] | –

— US9522920B2, “Bromodomain inhibitors and uses thereof” (Constellation Pharmaceuticals, Inc., priority 2010, dated 2016)
